# PubChem BioAssay AID1949 (Southern Research Institute, 2009)
# Results filed as inconclusive are left out. Activity calls are given as the source filed them. No rule for the calls is given here.
# System: M. tuberculosis H37Rv growth inhibition
# Assay: Mycobacterium tuberculosis H37Rv growth inhibition, cell based, confirmatory dose response (AID 1949);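 also: bacteria grown 7 days with compound before Alamar blue readout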
row,SMILES,IC50
1,O=C(Nc1ccc(Cl)c(Br)c1)c1ccc(Cl)cc1Cl,4.23 µg/mL
2,CCOC(=O)c1c(-c2ccc(C)o2)csc1NC(=S)NC(=O)N(C)C,1.85 µg/mL
3,COc1ccc(Nc2ccnc3cc4ccccc4cc23)cc1,0.74 µg/mL
4,CCOC(=O)c1cc(-c2ccccc2)sc1NC(=S)NC1CCN(Cc2ccccc2)CC1,0.77 µg/mL
5,Cc1cc2ncn(CC(O)COc3ccc(C(C)C)cc3)c2cc1C (centres undefined),5.42 µg/mL
6,CC(C)(C)c1ccc(OCCCNCc2ccccc2)cc1,4.84 µg/mL
7,O=C(Nc1ccn(Cc2ccc(Cl)cc2)n1)c1ccc2c(c1)OCO2,2.43 µg/mL
8,COc1ccc(OCC(=O)N=Nc2c(O)[nH]c3c(Br)cc(C)cc23)c(Br)c1,16.7 µg/mL
9,Cc1ccc2nc(Cc3nc4ccc(C)cc4[nH]3)[nH]c2c1,> 50 µg/mL (inactive)
10,O=C(Nc1ccc(Br)c(C(F)(F)F)c1)c1ccccc1,3.26 µg/mL
11,Nc1ccc2nc(SCC(=O)Nc3cccc(Cl)c3)sc2c1,> 50 µg/mL (inactive)
12,CCOC(=O)/C(C#N)=C/c1ccc(-c2ccc(F)cc2)o1,0.25 µg/mL
13,COC(=O)COc1ccc2c(=O)c(-c3ccccc3Cl)c(C)oc2c1,0.42 µg/mL
14,Cc1ccc(-n2cnc3cc(NCc4cccs4)ccc32)cc1,2.87 µg/mL
15,Cc1cc2ncn(CCCOc3ccccc3C)c2cc1C,4.63 µg/mL
16,COc1ccccc1Nc1nc(N)nc(CN2CCC(Cc3ccccc3)CC2)n1,37.8 µg/mL
17,COC(=O)c1ccc(CSc2nnc(-c3ccncc3)o2)o1,> 50 µg/mL (inactive)
18,COc1ccc(C(=O)CCN2CCN(c3ccccc3F)CC2)cc1,5.64 µg/mL
19,CCOC(=O)COc1ccc2cc(-c3nc4ccccc4o3)c(=O)oc2c1,3.3 µg/mL
20,O=C(Nc1cccc(Cl)c1)c1cc(Br)ccc1Cl,1.53 µg/mL

row,SMILES,IC50
1,CCn1cc(C(=O)O)c(=O)c2cc(F)c(N3CCN(C(=S)Nc4cc(C(F)(F)F)ccc4Cl)CC3)cc21,2.99 µg/mL
2,COc1ccc(C2=CC(c3ccccc3Cl)n3nnnc3N2)cc1OC (centres undefined),24.1 µg/mL
3,Clc1ccc(-c2nnc(SCc3ccon3)o2)c(Cl)c1,0.79 µg/mL
4,S=C(NCc1ccc(Cl)cc1)N1CCN(C/C=C/c2ccccc2)CC1,1.99 µg/mL
5,Clc1ccc(OCCCCn2ccnc2)c(Br)c1,1.51 µg/mL
6,CCOc1ccc(Nc2nc(N)c(C(=O)C(C)(C)C)s2)cc1,5.96 µg/mL
7,COC(=O)COc1ccc(NC(=O)c2ccc3c(c2)C(=O)N(C(C)(C)C)C3=O)cc1,0.32 µg/mL
8,Clc1ccc(OCc2ccccc2Cl)c(CNC2CCCCC2)c1,2.51 µg/mL
9,Clc1ccccc1COc1ccc2ccccc2c1CNCc1cccnc1,8.75 µg/mL
10,COc1ccccc1-c1coc2cc(OCC(=O)OC3CCCCC3)ccc2c1=O,0.24 µg/mL
11,CSc1cccc(NC(=O)C2CCN(C(=O)c3ccc(-c4ccccc4)cc3)CC2)c1,5.73 µg/mL
12,Brc1c(OCCCn2ccnc2)ccc2ccccc12,1.56 µg/mL
13,O=C(CC12CC3CC(CC(C3)C1)C2)Nc1cccc(Cl)c1,3.34 µg/mL
14,CC(=O)c1ccc(NCCC(=O)c2ccco2)cc1,2.8 µg/mL
15,O=C(Nc1ccc([N+](=O)[O-])cc1)N1CCN(c2cccc(C(F)(F)F)c2)CC1,1.56 µg/mL
16,Cc1cc(NC(=O)c2ccc([N+](=O)[O-])o2)c(C)cc1I,0.46 µg/mL
17,O=Cc1ccc(Sc2nnc(-c3ccccc3)o2)o1,3.39 µg/mL
18,CCC(C)c1ccc(OCC(=O)NC2C3CC4CC(C3)CC2C4)cc1 (centres undefined),7.97 µg/mL
19,c1ccc(CNCCCOc2cccc3ccccc23)cc1,4.89 µg/mL
20,Cc1cc(N)cc(-c2nc3ccccc3o2)c1O,16.4 µg/mL

row,SMILES,IC50
1,O=[N+]([O-])c1cccc(NC(=S)Nc2cc(C(F)(F)F)ccc2F)c1,19 µg/mL
2,O=C(Nc1nc2c(Cl)c(Cl)ccc2s1)c1ccco1,4.83 µg/mL
3,Cc1ccc(Cl)cc1N(CC(=O)Nc1ccc(I)cc1)S(C)(=O)=O,4.66 µg/mL
4,CCOC(=O)c1ccc(NC(=S)NCCN2CCc3ccccc3C2)cc1,31 µg/mL
5,COc1ccc(CNCCC(c2ccc(OC)cc2)c2ccccc2OC)cc1 (centres undefined),8 µg/mL
6,COc1ccc(C(=S)N2CC(C)OC(C)C2)c(OC)c1 (centres undefined),> 50 µg/mL (inactive)
7,CCCCCn1c(NCc2cccs2)nc2ccccc21,3.41 µg/mL
8,Cc1csc(NC(=O)CSc2ccc(Br)cc2)n1,5.62 µg/mL
9,Cc1ccc(NC(=O)c2cc([N+](=O)[O-])ccc2O)cc1,14.3 µg/mL
10,CCOC(=O)COc1ccc(C(=O)Nc2cccc(Cl)c2C)cc1,< 0.1 µg/mL
11,CC(=O)c1cccc(Nc2cc(C)nc3c2ccc2ccccc23)c1,3.1 µg/mL
12,Cc1ccc(-n2c(=O)oc3ccc(Cl)cc3c2=O)cc1,> 50 µg/mL (inactive)
13,Cc1cc(C)cc(OCC(=O)c2ccc(Br)cc2)c1,6.8 µg/mL
14,O=C(NC12CC3CC(CC(C3)C1)C2)N1CCN(c2cccc(Cl)c2)CC1,8.14 µg/mL
15,O=C(Nc1ccc(F)cc1)NC1CCCCCCC1,2.53 µg/mL
16,COc1ccc(NC(=O)c2ccc(C#CC(C)(C)O)s2)cc1,0.31 µg/mL
17,COc1ccc2c(c1)CCC1Sc3ccccc3N=C21 (centres undefined),1.43 µg/mL
18,Oc1ccc(-c2nc3cc4ccccc4cc3nc2-c2ccccc2)cc1,0.96 µg/mL
19,COC(=O)COc1ccc(NC(=O)c2cccc(C)c2)cc1,0.58 µg/mL
